Read-outs that look alike come from different tables or passages of the source.
How the values were obtained:
[1] = test system: IL-13-stimulated STAT6 phosphorylation in human lung bronchial epithelial BEAS-2B cell line; test: P-STAT6 BEAS-2B + IL-13 cell assay; format: cell-based; conditions: BEAS2B cells, IL13 stimulation, read-out: Cellular JAK1 PSTAT6 BEAS2B + IL13
Procedure: In order to study the effect of JAK1 inhibitors in a cell line that is relevant to the cell biology of human asthma, an IL-13-stimulated STAT6 phosphorylation assay in the human lung bronchial epithelial BEAS-2B cell line was developed.
BEAS-2B cells (ATCC′ CRL-9609™) were grown in Bronchial Epithelial Growth Medium (BEGM) (Lonza Catalog No. CC-3170; Walkersville, MD; or PromoCell Catalog No. C-21060; Heidelberg, Germany). Test compound stock solutions (0.5 mM in DMSO) were serially diluted 1:2 in DMSO to generate a 10-point concentration curve (at 500× test concentration), which was further diluted by a 50-fold dilution step in BEGM to generate a 10× concentration curve (in 2% DMSO). Cells were plated at 100,000 cells/well in 200 μL of BEGM in 96-well plates and incubated for 48 hours at 37° C. in a humidified incubator. Medium was aspirated from the cells and replaced with 70 μL of fresh BEGM. Diluted test compound (10 μL; or 2% DMSO in assay medium) was added to the cells, and the plates were incubated for 1 hour at 37° C. in a humidified incubator. Twenty μL of 250 ng/mL human recombinant IL-13 (Bio Techne Catalog No. 213-ILB) was then added to the cells and incubated for 15 minutes at 37° C. Medium was aspirated from the cells and 60 μL of ice-cold 1× cell lysis buffer (Cell Signaling Technologies; Catalog No. 9803S) containing 1 mM PMSF was added to the cells. Assay plates were incubated at −80° C. for at least 1 hour. P-STAT6 was measured by coating GAR plates (MSD; Catalog No. L45RA-1) with rabbit anti-human total STAT6 antibody (Cell Signaling Technologies; Catalog No. 9362S), incubating the cell lysates in the coated plates overnight at 4° C., and then detecting with mouse anti-phospho-STAT6 (Tyr641) Clone 16E12 antibody (Millipore; Catalog No. 05-590, custom labeled by MSD with SULFO-tag) using standard MSD plate processing, washing, and detection protocols. Plates were read on the MESO SECTOR 5600.
Data analysis was performed by subtracting negative control values from all wells and determining percent of control using the positive control values; the IC50 was determined with a four-parameter logistic fit model as shown in Equation 4.

[2] = biological target: Recombinant human JAK2 kinase domain protein (Residues 812-1132) (Homo sapiens, UniProt O60674); test: JAK2 biochemical assay (LabChip mobility shift, Ki); conditions: Biochem JAK2 Ki
[3] = biological target: T1, recombinant human JAK1 kinase domain protein (Residues 854-1154) (Homo sapiens, UniProt P23458); test: JAK1 biochemical assay (LabChip mobility shift, Ki); conditions: read-out: Biochem JAK1 Ki
T1 construct: human JAK1 kinase domain protein (Residues 854-1154); purchased Proteros Biostructures GmbH (Martinsried, Germany); host or cells: insect cells
T1 sequence (P23458 854-1154): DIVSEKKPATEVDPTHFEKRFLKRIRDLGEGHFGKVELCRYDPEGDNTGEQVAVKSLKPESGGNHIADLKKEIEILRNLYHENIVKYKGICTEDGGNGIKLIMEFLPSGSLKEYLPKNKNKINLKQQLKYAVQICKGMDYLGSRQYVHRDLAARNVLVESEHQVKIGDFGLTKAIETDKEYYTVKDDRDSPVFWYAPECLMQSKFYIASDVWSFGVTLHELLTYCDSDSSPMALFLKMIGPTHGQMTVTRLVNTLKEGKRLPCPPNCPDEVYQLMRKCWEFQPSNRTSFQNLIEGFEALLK

Recombinant human JAK2 kinase domain protein (Residues 812-1132), sequence (O60674 812-1132): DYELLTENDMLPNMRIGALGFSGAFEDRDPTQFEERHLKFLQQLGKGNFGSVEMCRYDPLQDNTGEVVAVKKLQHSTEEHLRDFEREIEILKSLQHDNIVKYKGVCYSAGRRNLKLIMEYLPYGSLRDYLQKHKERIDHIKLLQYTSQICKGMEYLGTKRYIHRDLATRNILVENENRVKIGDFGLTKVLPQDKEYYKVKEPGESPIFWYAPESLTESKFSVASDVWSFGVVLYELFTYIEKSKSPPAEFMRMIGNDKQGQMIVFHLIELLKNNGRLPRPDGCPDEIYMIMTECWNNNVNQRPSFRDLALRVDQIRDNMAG

| Structure (SMILES) | Ki [2] [nM] | Ki [3] [nM] | IC50 ([1]; Homo sapiens, BEAS-2B) [nM] | IC50 [1] [nM] |
| --- | --- | --- | --- | --- |
| Cn1cc(NC(=O)c2cnn3cccnc23)c(-c2cc(Oc3cccc(C4(O)CNC4)c3)ccc2OC(F)F)n1 [Example 53] | 0.27 | 0.32 | 210 | – |
| C[C@H](O)Cn1cc(Oc2ccc(OC(F)F)c(-c3nn(C)cc3NC(=O)c3cnn4cccnc34)c2)cn1 (racemic) [Example 120, N-[3-[2-(difluoromethoxy)-5-[1-[rac-(2R)-2-hydroxypropyl]pyrazol-4-yl]oxy-phenyl]-1-methyl-pyrazol-4-yl]pyrazolo[1,5-a]pyrimidine-3-carboxamide] | 0.24 | 0.35 | 19 | – |
| Cn1cc(NC(=O)c2cnn3cccnc23)c(-c2cc(Oc3cccc(CN(CCO)CCO)c3)ccc2OC(F)F)n1 [Example 45, N-[3-[5-[3-[[bis(2-hydroxyethyl)amino]methyl]phenoxy]-2-(difluoromethoxy)phenyl]-1-methyl-pyrazol-4-yl]pyrazolo[1,5-a]pyrimidine-3-carboxamide] | 0.5 | 0.58 | 34 | – |
| Cc1ccc(Oc2ccc(OC(F)F)c(-c3nn(C[C@@H]4C[C@@H](F)CN4C)cc3NC(=O)c3cnn4cccnc34)c2)cc1C(=O)N(C)C (racemic) [Example 89, N-[3-[2-(difluoromethoxy)-5-[3-(dimethylcarbamoyl)-4-methyl-phenoxy]phenyl]-1-[[rac-(2R,4S)-4-fluoro-l-methyl-pyrrolidin-2-yl]methyl]pyrazol-4-yl]pyrazolo[1,5-a]pyrimidine-3-carboxamide] | 1.3 | 1.2 | 120 | – |
| CN1CCN(C(=O)c2cccc(Oc3ccc(OC(F)F)c(-c4nn(C)cc4NC(=O)c4cnn5cccnc45)c3)c2)CC1 [Example 84, N-[3-[2-(difluoromethoxy)-5-[3-(4-methylpiperazine-1-carbonyl)phenoxy]phenyl]-1-methyl-pyrazol-4-yl]pyrazolo[1,5-a]pyrimidine-3-carboxamide] | 0.47 | 0.48 | 74 | – |
| CNCc1cccc(Oc2ccc(OC(F)F)c(-c3n[nH]cc3NC(=O)c3cnn4cccnc34)c2)c1 [Example 15, N-[3-[2-(difluoromethoxy)-5-[3-(methylaminomethyl)phenoxy]phenyl]-1H-pyrazol-4-yl]pyrazolo[1,5-a]pyrimidine-3-carboxamide] | 0.4 | 0.32 | 24 | – |
| CN1CCN(C(=O)c2ccc(Oc3ccc(OC(F)F)c(-c4nn(C)cc4NC(=O)c4cnn5cccnc45)c3)cc2)CC1 [Example 86, N-[3-[2-(difluoromethoxy)-5-[4-(4-methylpiperazine-1-carbonyl)phenoxy]phenyl]-1-methyl-pyrazol-4-yl]pyrazolo[1,5-a]pyrimidine-3-carboxamide] | 0.56 | 1.1 | 77 | – |
| NCc1cc(Oc2ccc(OC(F)F)c(-c3n[nH]cc3NC(=O)c3cnn4cccnc34)c2)ccc1C(F)(F)F [Example 52, N-[3-[5-[3-(aminomethyl)-4-(trifluoromethyl)phenoxy]-2-(difluoromethoxy)phenyl]-1H-pyrazol-4-yl]pyrazolo[1,5-a]pyrimidine-3-carboxamide] | 2.3 | 3 | 91 | – |
| CC(C)(C#N)c1ccc(Oc2ccc(OC(F)F)c(-c3n[nH]cc3NC(=O)c3cnn4cccnc34)c2)cc1 [Example 67, N-[3-[5-[4-(1-cyano-1-methyl-ethyl)phenoxy]-2-(difluoromethoxy)phenyl]-1H-pyrazol-4-yl]pyrazolo[1,5-a]pyrimidine-3-carboxamide] | 1.2 | 2.1 | 25 | – |
| Cn1cc(NC(=O)c2cnn3cccnc23)c(-c2cc(Oc3cccc(-n4nccc4CN)c3)ccc2OC(F)F)n1 [Example 57, N-[3-[5-[3-[5-(aminomethyl)pyrazol-1-yl]phenoxy]-2-(difluoromethoxy)phenyl]-1-methyl-pyrazol-4-yl]pyrazolo[1,5-a]pyrimidine-3-carboxamide] | 0.69 | 0.91 | 37 | – |
| Cn1cc(NC(=O)c2cnn3cccnc23)c(-c2cc(Oc3cncc(CN)c3)ccc2OC(F)F)n1 [Example 77, N-[3-[5-[[5-(aminomethyl)-3-pyridyl]oxy]-2-(difluoromethoxy)phenyl]-1-methyl-pyrazol-4-yl]pyrazolo[1,5-a]pyrimidine-3-carboxamide] | 2.5 | 2.6 | 33 | – |
| Cc1ccc(Oc2ccc(OC(F)F)c(-c3n[nH]cc3NC(=O)c3cnn4cccnc34)c2)cc1CC(=O)N(C)C [Example 17, N-[3-[2-(difluoromethoxy)-5-[3-[2-(dimethylamino)-2-oxo-ethyl]-4-methyl-phenoxy]phenyl]-1H-pyrazol-4-yl]pyrazolo[1,5-a]pyrimidine-3-carboxamide] | 0.21 | 0.42 | 26 | – |

More lines, main results first:

| Ki [2] [nM] | Ki [3] [nM] | Structure (SMILES) | IC50 ([1]; Homo sapiens, BEAS-2B) [nM] | IC50 [1] [nM] |
| --- | --- | --- | --- | --- |
| 0.39 | 0.64 | CN(C)C(=O)c1ccc(Oc2ccc(OC(F)F)c(-c3nn(C4COC4)cc3NC(=O)c3cnn4cccnc34)c2)cc1 [Example 142, 3-[2-(difluoromethoxy)-5-[4-(dimethylcarbamoyl)phenoxy]phenyl 1-1-(oxetan-3-yl)pyrazol-4-yl]pyrazolo[1,5-a]pyrimidine-3-carboxamide] | 22 | – |
| 0.37 | 0.54 | CN(C)C(=O)c1cncc(Oc2ccc(OC(F)F)c(-c3nn(C)cc3NC(=O)c3cnn4cccnc34)c2)c1 [Example 159, N-[3-[2-(difluoromethoxy)-5-[[5-(dimethylcarbamoyl)-3-pyridyl]oxy]phenyl]-1-methyl-pyrazol-4-yl]pyrazolo[1,5-a]pyrimidine-3-carboxamide] | 43 | – |
| 3.1 | 5.5 | CN1CC(CC#N)(c2ccc(Oc3ccc(OC(F)F)c(-c4nn(C)cc4NC(=O)c4cnn5cccnc45)c3)cc2)C1 [Example 145, N-[3-[5-[4-[3-(cyanomethyl)-1-methyl-azetidin-3-yl]phenoxy]-2-(difluoromethoxy)phenyl]-1-methyl-pyrazol-4-yl]pyrazolo[1,5-a]pyrimidine-3-carboxamide] | 160 | – |
| 0.38 | 0.82 | Cn1cc(NC(=O)c2cnn3cccnc23)c(-c2cc(Oc3cnn(CC4COC4)c3)ccc2OC(F)F)n1 [Example 125, N-[3-[2-(difluoromethoxy)-5-[1-(oxetan-3-ylmethyl)pyrazol-4-yl]oxy-phenyl]-1-methyl-pyrazol-4-yl]pyrazolo[1,5-a]pyrimidine-3-carboxamide] | 87 | – |
| 0.22 | 0.28 | Cn1cc(NC(=O)c2cnn3cccnc23)c(-c2cc(Oc3ccc(C4(CC#N)COC4)cc3)ccc2OC(F)F)n1 [Example 147] | 19 | – |
| 1.9 | 3.6 | Cn1cc(NC(=O)c2cnn3cccnc23)c(-c2cc(Oc3ccc(C4(CC#N)CNC4)cc3)ccc2OC(F)F)n1 [Example 148, N-[3-[5-[4-[3-(cyanomethyl)azetidin-3-yl]phenoxy]-2-(difluoromethoxy)phenyl]-1-methyl-pyrazol-4-yl]pyrazolo[1,5-a]pyrimidine-3-carboxamide] | 210 | – |
| 0.24 | 0.41 | CNC(=O)c1ccc(Oc2ccc(OC(F)F)c(-c3nn(C)cc3NC(=O)c3cnn4cccnc34)c2)cc1 [Example 131, N-[3-[2-(difluoromethoxy)-5-[4-(methylcarbamoyl)phenoxy]phenyl]-1-methyl-pyrazol-4-yl]pyrazolo[1,5-a]pyrimidine-3-carboxamide] | 23 | – |
| 0.22 | 0.41 | Cn1cc(NC(=O)c2cnn3cccnc23)c(-c2cc(Oc3cnn(C4CCNCC4O)c3)ccc2OC(F)F)n1 (stereo not drawn) [Example 183, N-[3-[2-(difluoromethoxy)-5-[1-(3-hydroxy-4-piperidyl)pyrazol-4-yl]oxy-phenyl]-1-methyl-pyrazol-4-yl]pyrazolo[1,5-a]pyrimidine-3-carboxamide] | – | 150 |
